Source: patent publication US20150105349A1, “(R)-(-)-1,2-propanediol compositions and methods” (priority 2013, published 2015)

How the values were obtained:
philtrum skin = philtrum skin cooling bioassay (subjective coolness rating 0-3); format: in vivo, human; details: 49% distilled water, 1% ethanol
Text: The term “alcoholic solvent” refers to a chemical with one to four carbons with at least one hydroxyl group attached to a carbon atom. A reliable place for topical application is the skin above the upper lip (above the vermilion border of the lips), on the philtrum, lateral to the philtrum until the nasolabial folds, and on the lower nostrils (subnasale). This part of the face is known to be densely innervated with cold receptors, second only to the surfaces of the eyeball and anogenitalia. Tingling, cool and cold sensations from the skin may be experienced and rated for time of onset and intensity.
The intervals for recording sensations are 5 to 10 minutes, until two successive zeros are obtained. The results (shown in the Figures) are averaged values of 4 to 6 separate trials in the same individual. The data are plotted using SigmaPlot (Systat Software, Point Richmond, Calif.) and a smoothing function with a negative exponential was used for analysis and statistical fit of the results. The onset of drug action is taken as the time to reach 2 units of coolness intensity, and offset of drug action is the time when coolness intensity drops below 2, after previously surpassing 2 units. […] The duration of cooling action is defined as the offset time minus the onset time and the primary index of effect. As described in Examples, the test compounds were tested at 2 to 10 mg/mL of vehicle.
For assays on the skin, the cooling agent(s) was dissolved in the alcoholic solvent to yield a 2, 2.5, 3, 5 or 10 mg/mL solution. Using a cotton-tipped applicator (e.g. Q-tips®) 0.10 to 0.25 mL of the test solution was applied to the skin above the upper lip, on the philtrum, and lateral to the philtrum up to the nasolabial folds, and the onset and duration of cooling sensations noted. […] The interval for recording sensations was at 5 to 10 minute intervals, until at least two successive zeros were obtained. The results were averaged values of 3 to 6 separate trials in the same individual. The “onset” is the time taken to reach a coolness intensity value of 2. […] The “off-set” is when the coolness intensity drops below 2, and the duration is the time of off-set minus the time of onset. The area under the curve (AUC) gives an estimate of the intensity and duration of drug action and can be obtained from the plotted data using SigmaPlot (Systat Software, Point Richmond, Calif.). The AUC unit is the product of cooling intensity x min.

[1] = target: T1, cloned hTRPM8 channel (human TRPM8 gene, expressed in CHO cells) (Homo sapiens, UniProt Q7Z2W7); test: agonist activity on cloned hTRPM8 channel, Fluo-8 calcium kit, FLIPR; format: cell-based; details: TRPM8 receptor assay
T1 construct: host or cells: CHO cells
Procedure: The in vitro effects of test articles were evaluated on cloned hTRPM8 channel (encoded by the human TRPM8 gene, expressed in CHO cells) using a Fluo-8 calcium kit and a Fluorescence Imaging Plate Reader (FLIPR^TETRA™) instrument. […] The total number of carbons in these trialkylphosphine oxides ranged from 12 to 15.
To further examine solvent-receptor interactions, stock solutions of 1-7 [1-(Diisopropyl-phosphinoyl)-heptane] were prepared in dimethyl sulfoxide (DMSO) or DMSO containing 10% or 30% by volume of the three isomers of 1,2-propanediol, (R/S-PD, R-PD, and S-PD) and stored frozen. Six dose levels were tested ranging from 0.003 to 3 μM. Ten μl of the test article solution were added to 40 μl of cells in HBPS in glass-lined 384-well compound plates, and placed into the FLIPR instrument for the fluorescence readout (Molecular Devices Corporation, Union City, Calif.).

[2] = system: periorbital skin and skin above the cheekbone; test: cosmetic wipe over periorbital skin and skin above the cheekbone, six female subjects; format: in vivo, human; details: 10 mg/mL in water (50%), 10% (S)-, 40% (R)-1,2-propanediol
Procedure: Six female subjects working at a cosmetics company volunteered to try topical applications of 1-7 and/or 1-8, formulated at 10 mg/mL in water (50%) and 10% (S)-1,2-propanediol, 40% (R)-1,2-propanediol wt/wt. The liquid was put on a cotton square and wiped over the periorbital skin and the skin above the cheekbone. All the subjects remarked on a refreshing coolness on the skin at the sites of application within 2 min after application. There was a “wow” effect, that was considered pleasant and stimulating. […] Four of the six subjects said they felt more “awake and energetic.”

[3] = system: itchy scalp, seborrheic dermatitis; test: topical application to itchy scalp in seborrheic dermatitis, one subject; format: in vivo, human; details: 10 mg/mL in 12% (S)-1,2-propanediol, 37% (R)-1,2-propanediol, 1% ethanol, 50% water
Procedure: A subject with severe seborrheic dermatitis complained of an itchy scalp which was not resolved with anti-dandruff shampoos. […] The delivery was made using a 20 mL reservoir bottle capped with a Yorker spout. They remarked that routine application of the solution on an “as needed basis” stopped the itch for 6 to 8 hours and repeat applications for one week allowed their scalp to feel refreshed and normal. They proposed to pay for a continued supply of the solution.

T1 sequence (Q7Z2W7 whole entry): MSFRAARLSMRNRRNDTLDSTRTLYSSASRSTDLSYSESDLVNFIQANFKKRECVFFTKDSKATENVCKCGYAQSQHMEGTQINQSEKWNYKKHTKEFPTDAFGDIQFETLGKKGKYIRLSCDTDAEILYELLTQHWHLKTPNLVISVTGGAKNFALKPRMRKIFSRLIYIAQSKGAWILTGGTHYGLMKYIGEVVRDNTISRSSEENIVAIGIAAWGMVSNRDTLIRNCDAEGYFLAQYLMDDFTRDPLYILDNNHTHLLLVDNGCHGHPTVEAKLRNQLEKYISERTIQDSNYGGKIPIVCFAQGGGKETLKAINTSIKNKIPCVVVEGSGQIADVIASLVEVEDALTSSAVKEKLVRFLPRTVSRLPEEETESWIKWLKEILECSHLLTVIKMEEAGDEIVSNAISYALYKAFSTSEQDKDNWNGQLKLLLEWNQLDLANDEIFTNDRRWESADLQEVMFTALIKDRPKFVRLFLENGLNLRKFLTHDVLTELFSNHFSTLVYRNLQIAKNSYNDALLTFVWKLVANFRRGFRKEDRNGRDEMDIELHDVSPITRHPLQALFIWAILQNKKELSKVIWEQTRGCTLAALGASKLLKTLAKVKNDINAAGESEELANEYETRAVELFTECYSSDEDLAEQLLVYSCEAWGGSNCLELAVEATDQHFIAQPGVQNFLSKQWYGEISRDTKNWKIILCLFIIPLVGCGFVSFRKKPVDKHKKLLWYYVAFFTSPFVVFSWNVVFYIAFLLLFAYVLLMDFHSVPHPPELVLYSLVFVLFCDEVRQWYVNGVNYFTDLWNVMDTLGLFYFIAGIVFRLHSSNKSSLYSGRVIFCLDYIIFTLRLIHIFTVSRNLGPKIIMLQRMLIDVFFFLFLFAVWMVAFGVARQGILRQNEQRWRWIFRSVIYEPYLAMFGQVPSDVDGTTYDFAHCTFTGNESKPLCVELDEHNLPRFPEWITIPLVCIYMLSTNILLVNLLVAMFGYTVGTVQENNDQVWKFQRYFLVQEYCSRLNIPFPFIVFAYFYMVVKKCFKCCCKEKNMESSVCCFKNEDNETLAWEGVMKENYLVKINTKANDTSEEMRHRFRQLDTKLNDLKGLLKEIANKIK

For CCCCCCCCP(=O)(C(C)C)C(C)C [1-8], the “Ratio of AUC 75/25% R/S to 25/75% R/S (fold increase in cooling activity)” value (philtrum skin) was 1.5, the “Potency Relative to I-menthol” value [1] was 5.4 and the EC50 ([1]; read-out: EC50 μM (95% C, L.)) was 0.7 µM. The “irritation or redness on the skin after applications” value [2] was “no irritation or redness”, the “time facial skin felt cool and dry after application” value ([2]; all subjects) was “at least one hour” and the “duration for which itch was stopped” value [3] was 6 to 8 h.
